Measured values as given in BigSolDB 2.1.

In the case of `OC[C@@H](O)[C@@H](O)[C@H](O)[C@@H](O)CO`, the solubility (mole fraction) (in THF, 278.15 K) is reported as 0.000363, the solubility (mole fraction) (in THF, 283.15 K) is reported as 0.000406 and the solubility (mole fraction) (in THF, 288.15 K) is reported as 0.000446. The solubility (mole fraction) (in THF, 293.15 K) was 0.000489, the solubility (mole fraction) (in THF, 298.15 K) was 0.000544 and the solubility (mole fraction) (in THF, 303.15 K) was 0.000597. It also gave a solubility (mole fraction) (in acetone, 278.15 K) of 0.000225, a solubility (mole fraction) (in acetone, 283.15 K) of 0.000255 and a solubility (mole fraction) (in acetone, 288.15 K) of 0.000287. The solubility (mole fraction) (in acetone, 293.15 K) was 0.000328, the solubility (mole fraction) (in acetone, 298.15 K) was 0.000382 and the solubility (mole fraction) (in acetone, 303.15 K) was 0.000436. It also gave a solubility (mole fraction) (in acetonitrile, 278.15 K) of 0.000109, a solubility (mole fraction) (in acetonitrile, 283.15 K) of 0.000129 and a solubility (mole fraction) (in acetonitrile, 288.15 K) of 0.000153. The solubility (mole fraction) (in acetonitrile, 293.15 K) was 0.000178, the solubility (mole fraction) (in acetonitrile, 298.15 K) was 0.000208 and the solubility (mole fraction) (in acetonitrile, 303.15 K) was 0.000249. It also gave a solubility (mole fraction) (in ethanol, 278.15 K) of 0.000598, a solubility (mole fraction) (in ethanol, 283.15 K) of 0.000753 and a solubility (mole fraction) (in ethanol, 288.15 K) of 0.000944. The solubility (mole fraction) (in ethanol, 293.15 K) was 0.00117, the solubility (mole fraction) (in ethanol, 298.15 K) was 0.00146 and the solubility (mole fraction) (in ethanol, 303.15 K) was 0.00181. It also gave a solubility (mole fraction) (in ethyl acetate, 278.15 K) of 0.000239, a solubility (mole fraction) (in ethyl acetate, 283.15 K) of 0.000259 and a solubility (mole fraction) (in ethyl acetate, 288.15 K) of 0.000289. The solubility (mole fraction) (in ethyl acetate, 293.15 K) was 0.000317, the solubility (mole fraction) (in ethyl acetate, 298.15 K) was 0.000354 and the solubility (mole fraction) (in ethyl acetate, 303.15 K) was 0.000392. The solubility (mole fraction) (in methanol, 278.15 K) was 0.00205, the solubility (mole fraction) (in methanol, 283.15 K) was 0.00275 and the solubility (mole fraction) (in methanol, 288.15 K) was 0.00351. It also gave a solubility (mole fraction) (in methanol, 293.15 K) of 0.00461, a solubility (mole fraction) (in methanol, 298.15 K) of 0.00585 and a solubility (mole fraction) (in methanol, 303.15 K) of 0.00739. The solubility (mole fraction) (in n-butanol, 278.15 K) was 0.000449, the solubility (mole fraction) (in n-butanol, 283.15 K) was 0.000533 and the solubility (mole fraction) (in n-butanol, 288.15 K) was 0.000627. It also gave a solubility (mole fraction) (in n-butanol, 293.15 K) of 0.000748, a solubility (mole fraction) (in n-butanol, 298.15 K) of 0.000895 and a solubility (mole fraction) (in n-butanol, 303.15 K) of 0.00106. It also gave a solubility (mole fraction) (in n-propanol, 278.15 K) of 0.000553, a solubility (mole fraction) (in n-propanol, 283.15 K) of 0.000677 and a solubility (mole fraction) (in n-propanol, 288.15 K) of 0.000838. It also gave a solubility (mole fraction) (in n-propanol, 293.15 K) of 0.00102, a solubility (mole fraction) (in n-propanol, 298.15 K) of 0.00124 and a solubility (mole fraction) (in n-propanol, 303.15 K) of 0.00152.
